Source: article PMC6161288, “Bioavailability of Eurycomanone in Its Pure Form and in a Standardised Eurycoma longifolia Water Extract” (Pharmaceutics, 2018)
Counter-ions that a name gives are not always drawn.

Legend:
Aqueous solubility = format: physicochemical
Procedure: The aqueous […] was estimated by adding 10 µL of eurycomanone stock solution (10 mM) to 490 µL of aqueous buffer at pH 5.4, pH 7.4 and DMSO in triplicates in deep-well plates. […] The plate was kept on a shaker (300 rpm) at room temperature for 16 h. The plate was then centrifuged at 25 °C, 4000 rpm for 25 min. The supernatant was transferred and analysed using LC-MS/MS.
Peak area 1 = peak area of the compound in 2% DMSO at the different pH levels.
Peak area 2 = peak area of the compound in 100% DMSO.

[1] = Lipophilicity, shake flask method with octanol and buffer (pH 7.4); format: physicochemical; details: pH 7.4
Procedure: The lipophilicity of eurycomanone was estimated using the shake flask method with octanol and buffer (pH 7.4). Eurycomanone (5 µL) at 5 mM concentration is added to octanol (495 µL) and DMSO (495 µL) and also into the aqueous and octanol phase in a 1:1 ratio ([…] of octanol phase and 247.5 µL of aqueous phase). The octanol and aqueous phases were prepared using a saturation process, where equal amounts of D-PBS (pH 7.4) and octanol were saturated (300 rpm, room temperature) for 24 h before being separated and kept at room temperature. The prepared mixtures were vortexed and kept on the shaker (300 rpm) at room temperature for 16 h. The mixtures were allowed to stand for 30 min, and 200 µL of solution was transferred and sent for HPLC analysis.

[2] = Caco-2 cell permeability assay; format: in vitro ADME; details: human, Caco-2, Efflux Ratio
Procedure: The Caco-2 assay was carried out after seeding the cells onto the membrane to form a confluent monolayer in 21 days. The media is removed from apical (A) and basolateral (B) chambers and the membrane is washed with HBSS buffer. Eurycomanone (10 µM, 200 µL) was added to the A compartment (which represents the intestinal lumen), and buffer (300 µL) was added to the B compartment (representing the blood), and vice versa. The plate was kept in a shaking incubator (37 °C) for 1 h. The amount of eurycomanone that had permeated across the cells was measured by LC-MS/MS, and the apparent permeability (Papp) values and efflux ratio were calculated. The expression of P-glycoprotein (P-gp) by differentiated Caco-2 cells was confirmed by measuring the Papp value and efflux ratio of vinblastine with and without the presence of a competing P-gp substrate, cyclosporine A. Eurycomanone was also measured with the presence of cyclosporine A to investigate whether eurycomanone may be transported via P-gp transporters.

Structure (SMILES) | Aqueous solubility (Aqueous solubility; pH 5.4) | Aqueous solubility (Aqueous solubility; pH 7.4) | logD at 16 h [1] | efflux ratio at 1 h, 10 µM [2]
C[C@]12CC[C@@H]3c4ccc(O)cc4CC[C@H]3[C@@H]1C[C@@H](O)[C@@H]2O [Estriol, estriol, reference compound] | moderate solubility | moderate solubility | 2.82 | –
CC[C@]1(O)C[C@@H]2CN(CCc3c([nH]c4ccccc34)[C@@](C(=O)OC)(c3cc4c(cc3OC)N(C)[C@H]3[C@@](O)(C(=O)OC)[C@H](OC(C)=O)[C@]5(CC)C=CCN6CC[C@]43[C@@H]65)C2)C1 [Vinblastine, vinblastine, reference compound] | – | – | – | 14.7
CC/C(=C(/CC)c1ccc(O)cc1)c1ccc(O)cc1 [diethylstilbestrol] | – | – | 3.18 | –
COCCc1ccc(OCC(O)CNC(C)C)cc1 (stereo not drawn) [metoprolol, metoprolol tartrate] | – | – | -0.29 | –
